Laboratory results from US7635779B2, “Oxy substituted flavones as antihyperglycemic and antidyslipidemic agents” (Council of Scientific & Industrial Research, priority 2004, dated 2009).
Where two headings read alike, the source gives them in different places.

Assays:
[1] = tested on: sucrose loaded rat; assay: Sucrose loaded rat model (SLM), antihyperglycemic activity; format: in vivo; conditions: for % Fall in blood glucose levels, SLM: 100 mg/kg oral, AUC vs control; for inhibition in vivo at 100 mg/kg: Rattus norvegicus, po, 2 h, read-out: % Fall in blood glucose levels, SLM
Experimental: Male albino rats of Charles Foster/Wistar strain of average body weight 160±20 g were selected for this study. The blood glucose level of each animal was checked by glucometer using glucostrips (Boehringer Mannheim) after 16 h starvation. Animals showing blood glucose levels between 3.33 to 4.44 mM (60 to 80 mg/dl) were divided into groups of five to six animals in each. Animals of experimental group were administered suspension of the desired synthetic compound orally (made in 1.0% gum acacia) at a dose of 100-mg/kg-body weight. Animals of control group were given an equal amount of 1.0% gum acacia. A sucrose load (10.0 g/kg) was given to each animal orally exactly after 30 min post administration of the test sample/vehicle. Blood glucose profile of each rat was again determined at 30, 60, 90 and 120 min post administration of sucrose by glucometer. Food but not water was withheld from the cages during the course of experimentation. Quantitative glucose tolerance of each animal was calculated by Area Under Curve (AUC) method (Prism Software). Comparing the AUC of experimental and control groups determined the percentage antihyperglycemic activity. Statistical comparison was made by Dunnett's test.

[2] = tested on: triton WR-1339 induced hyperlipidemic rats; assay: Triton model, antidyslipidemic activity; format: in vivo, rat; conditions: 100 mg/kg oral, plasma after 18 h; for inhibition in vivo at 100 mg/kg: Rattus norvegicus
Experimental: Male Charles foster rats weighing 200-225 g were divided into control, hyperlipidemic and hyperlipidemic plus drug treated groups containing six animals in each group. Hyperlipidemia was induced by administration of triton WR-1339 (200 mg/kg i.p.). All animals were maintained on a special pellet diet and water ad libitum. Compounds and standard drug were macerated with 0.2% aqueous gum acacia suspension. The suspension was fed orally at the dose of 100 mg/kg simultaneously with triton in drug treated group. The animals of control group received the same amount of gum acacia by similar route of administration. At the end of the experiment, after 18 h, blood was withdrawn from retro orbital plexus and plasma was used for the assay of total cholesterol, phospholipid and triglycerides.
Cholesterol was estimated using the kit provided by Roche Diagnostics. Cholesterol esters are enzymatically hydrolyzed by cholesterol esterase (CE) to cholesterol and free fatty acids. Free cholesterol, including that originally present, is then oxidized by cholesterol oxidase (CO) to cholest-4-en-3-one and hydrogen peroxide. The hydrogen peroxide combines with hydroxy benzoic acid (HBA) and 4-aminoantipyrine (4AAA) in the presence of peroxidase (POD) to form a chromophore (quinoneimine dye), which may be quantitated at 500-505 nm. The intensity of red colour formed is directly proportional to the concentration of total cholesterol in the specimen and measured spectrophotometrically (Searcy, C. L. Diagnostic Biochemistry, 1969, McGraw Hill, New York; Ellefson, R. D.; Caraway, W. T. Fundamentals of clinical chemistry, 1976, Ed Tietz N W, 506-515.)
Triglycerides were estimated using the kit provided by Roche Diagnostics. Lipoprotein lipase hydrolyses triglycerides to yield glycerol and fatty acids. Glycerol kinase converts glycerol to glycerol-3-phosphate, which is oxidized by glycerol phosphate oxidase to dihydroxy acetone phosphate and hydrogen peroxide. In the presence of peroxidase, hydrogen peroxide oxidatively couples with 4-aminoantipyrine and 4-chloro phenol to produce red quinonimine dye. The intensity of red colour formed is directly proportional to the concentration of triglycerides in the specimen and is measured by photometrically (Wahlefeld, A. W.; Bergmeyer, H. U. Ed. Methods of enzymatic analysis, 2nd English edition, New York, N.Y., Academic press inc, 1831-1840.).
Serum (0.2 mL) and perchloric acid (1.0 mL) was digested at 180° C. for 1-1.5 h till the solution became colorless. The liberated inorganic phosphate (Pi) was measured by the method of Fiske and Subbarow (Fiske, C. H.; Subbarow, V. J. Biol. Chem. 1925, 66, 375.). 1 mL of 2.5% ammonium molybdate (prepared in 5 N sulphuric acid) and 0.5 mL reducing agent (4-amino naphthol sulphonic acid, 0.2%), sodium metabisulphite (2.4% w/v in distilled water) was added to the above tubes and mixed well. The reaction mixture was […] with 2.5 mL of triple distilled water and kept at 60° C. in water bath for 20 min. For standard, an appropriate amount of potassium dihydrogen phosphate dissolved in triple distilled water containing 2-10 μg phosphorous (Pi) was run simultaneously with the experiment tubes. The optical density of the blue colour was recorded at 620 nm against reagent blank. The values of Pi were converted into phospholipid by multiplying with 25 (a constant calibrated from Pi value of lecithin).

[3] = tested on: streptozotocin-induced diabetic rats; assay: Sucrose-challenged streptozotocin-induced diabetic rats (STZ-S); format: in vivo, rat; conditions: 100 mg/kg oral
Experimental: Male albino rats of Sprague Dawley strain of body weight 160+20 g were selected for this study. Streptozotocin (Sigma, USA) was dissolved in 100 mM citrate buffer pH 4.5 and calculated amount of the fresh solution was injected to overnight fasted rats (45 mg/kg) intraperitoneally. Blood glucose level was checked 48 h later by glucostrips and animals showing blood glucose values between 144 to 270 mg/dl (8 to 15 mM) were included in the experiment and termed diabetic. The diabetic animals were divided into groups consisting of five to six animals in each group. Animals of experimental groups were administered suspension of the desired test samples orally (made in 1.0% gum acacia) at a dose of 100-mg/kg-body weight. Animals of control group were given an equal amount of 1.0% gum acacia. A sucrose load of 2.5-g/kg body weight was given after 30 minutes of compound administration. After 30 minutes of post sucrose load blood glucose level was again checked by glucostrips at 30, 60, 90, 120, 180, 240, 300 min and at 24 h, respectively. Animals not found diabetic after 24 hours post treatment of the test sample were not considered and omitted from the calculations and termed as non-responders. […] Food but not water was withheld from the cages during the experimentation. Comparing the AUC of experimental and control groups determined the percent antihyperglycemic activity. Statistical comparison between groups was made by Student's ‘t’ test.
As depicted in the FIGURE, a dose response curve of 34 was obtained by administering different doses of test compound to streptozotocin-induced diabetic rats (Table 6). […]

[4] = phospholipid, read-out: % Fall in lipid levels (Triton model) PL
[5] = total cholesterol, read-out: % Fall in lipid levels (Triton model) TC
[6] = triglycerides, read-out: % Fall in lipid levels (Triton model) TG

With `COc1cc(-c2cc(=O)c3ccc(OCCOc4ccc(C=C5SC(=O)NC5=O)cc4)cc3o2)cc(OC)c1OC` [Compound 64, 7-{2-[4-(thiazolidin-2,4-dione-5-ylidinemethyl)-phenoxy]-ethoxy}-3′,4′,5′-trimethoxy-flavone] the “% Fall in blood glucose levels, SLM” value [1] was 9.59%, the “% Fall in lipid levels (Triton model) PL” value ([2]; phospholipid) was 25% and the “% Fall in lipid levels (Triton model) TC” value ([2]; total cholesterol) was 20%. For the same compound, the “% Fall in lipid levels (Triton model) TG” value ([2]; triglycerides) was 26%.

`CC(C)(C)NCC(O)COc1ccc2oc(-c3ccc(O)c(O)c3)cc(=O)c2c1` (centres unmarked) [Compound 52, 6-(3-tert-Butylamino-2-hydroxy-propoxy)-3′,4′-dihydroxy-flavone] showed an inhibition in vivo at 100 mg/kg [1] of 4.96%, an inhibition in vivo at 100 mg/kg [2, 4] of 23% and an inhibition in vivo at 100 mg/kg [2, 5] of 24%. It also gave an inhibition in vivo at 100 mg/kg [2, 6] of 25%.

With `CC(C)(C)NCC(O)COc1ccc2c(=O)cc(-c3ccc(O)c(O)c3)oc2c1` (centres unmarked) [Compound 50, 7-(3-tert-Butylamino-2-hydroxy-propoxy)-3′,4′-dihydroxy-flavone] the “% Fall in blood glucose levels, SLM” value [1] was “NIL”, the inhibition in vivo at 100 mg/kg [2, 4] was 23% and the inhibition in vivo at 100 mg/kg [2, 5] was 21%. It also gave an inhibition in vivo at 100 mg/kg [2, 6] of 25%.

With `CC(C)NCC(O)COc1ccc2c(=O)cc(-c3cc(OCc4ccccc4)cc(OCc4ccccc4)c3)oc2c1` (centres unmarked) [Compound 35, 3′,5′-Dibenzyloxy-7-(2-hydroxy-3-iso-propylamino-propoxy)-flavone] the “% Fall in blood glucose levels, SLM” value [1] was “NIL”, the inhibition in vivo at 100 mg/kg [2, 4] was 8% and the inhibition in vivo at 100 mg/kg [2, 5] was 13%. The inhibition in vivo at 100 mg/kg [2, 6] was 11% and the melting point was 173 to 174 °C.

With `COc1cc(OC)cc(-c2cc(=O)c3ccc(OCC(O)CNC(C)(C)C)cc3o2)c1` (centres unmarked) [Compound 43, 7-[3-tert-Butylamino-2-hydroxy-propoxy]-3′,5′-dimethoxy flavone] the “% Fall in blood glucose levels, SLM” value [1] was “NIL”, the inhibition in vivo at 100 mg/kg [2, 4] was 19% and the inhibition in vivo at 100 mg/kg [2, 5] was 21%. For the same compound, the inhibition in vivo at 100 mg/kg [2, 6] was 17% and the melting point was 145 to 146 °C.

With `CC(C)NCC(O)COc1ccc2c(=O)cc(-c3ccc(OCc4ccccc4)c(OCc4ccccc4)c3)oc2c1` (centres unmarked) [Compound 38, 3′,4′-Dibenzyloxy-7-(2-hydroxy-3-iso-propylamino-propoxy)-flavone] the “% Fall in blood glucose levels, SLM” value [1] was “NIL”, the inhibition in vivo at 100 mg/kg [2, 4] was 5% and the inhibition in vivo at 100 mg/kg [2, 5] was 16%. For the same compound, the inhibition in vivo at 100 mg/kg [2, 6] was 14% and the melting point was 177 to 179 °C.

`COc1ccc(-c2cc(=O)c3ccc(OCC(O)CN4CCN(c5ccccc5)CC4)cc3o2)cc1OC` (centres unmarked) [Compound 47, 3′,4′-Dimethoxy-7-[2-hydroxy-3-(4-phenylpiperazin-1-yl)-propoxy]-flavone] gave an inhibition in vivo at 100 mg/kg [1] of 5.45%, an inhibition in vivo at 100 mg/kg [2, 4] of 22% and an inhibition in vivo at 100 mg/kg [2, 5] of 23%. For the same compound, the inhibition in vivo at 100 mg/kg [2, 6] was 19% and the melting point was 191 to 193 °C.

For `COc1ccc(-c2cc(=O)c3ccc(OCCCOc4ccc(C=C5SC(=O)NC5=O)cc4)cc3o2)cc1OC` [Compound 67, 3′,4′-Dimethoxy-7-{3-[4-(thiazolidin-2,4-dione-5-ylidinemethyl)-phenoxy]-propoxy}-flavone], the “% Fall in blood glucose levels, SLM” value [1] was 13.60%, the “% Fall in blood glucose levels, STZ-S 5 h” value [3] was 18.7% and the “% Fall in blood glucose levels, STZ-S 24 h” value [3] was 13.6%. The “% Fall in lipid levels (Triton model) PL” value ([2]; phospholipid) was 14%, the “% Fall in lipid levels (Triton model) TC” value ([2]; total cholesterol) was 28% and the “% Fall in lipid levels (Triton model) TG” value ([2]; triglycerides) was 21%.

In the case of `O=C1NC(=O)C(=Cc2ccc(OCCOc3ccc4c(=O)cc(-c5cc(OCc6ccccc6)cc(OCc6ccccc6)c5)oc4c3)cc2)S1` [Compound 62, 3′,5′-Dibenzyloxy-7-{2-[4-(thiazolidin-2,4-dione-5-ylidinemethyl)-phenoxy]-ethoxy}-flavone], the “% Fall in blood glucose levels, SLM” value [1] is reported as “NIL”, the “% Fall in lipid levels (Triton model) PL” value ([2]; phospholipid) is reported as 15% and the “% Fall in lipid levels (Triton model) TC” value ([2]; total cholesterol) is reported as 15%. The “% Fall in lipid levels (Triton model) TG” value ([2]; triglycerides) was 18%.

For `O=C1NC(=O)C(=Cc2ccc(OCCOc3ccc4c(=O)cc(-c5ccc(OCc6ccccc6)c(OCc6ccccc6)c5)oc4c3)cc2)S1` [Compound 63, 3′,4′-Dibenzyloxy-7-{2-[4-(thiazolidin-2,4-dione-5-ylidinemethyl)-phenoxy]-ethoxy}-flavone], the “% Fall in blood glucose levels, SLM” value [1] was 26.0%.

In the case of `COc1cc(OC)cc(-c2cc(=O)c3ccc(OCC(O)CN4CCN(c5ccccc5)CC4)cc3o2)c1` (centres unmarked) [Compound 45, 3′,5′-Dimethoxy-7-[2-hydroxy-3-(4-phenylpiperazin-1-yl)-propoxy]-flavone], the “% Fall in blood glucose levels, SLM” value [1] is reported as “NIL”, the inhibition in vivo at 100 mg/kg [2, 4] is reported as 20% and the inhibition in vivo at 100 mg/kg [2, 5] is reported as 30%. The inhibition in vivo at 100 mg/kg [2, 6] was 31% and the melting point was 195 to 196 °C.

With `COc1cc(-c2cc(=O)c3ccc(OCC(O)CNC(C)(C)C)cc3o2)cc(OC)c1OC` (centres unmarked) [Compound 40, 7-(3-tert-Butylamino-2-hydroxy-propoxy)-3′,4′,5′-trimethoxy-flavone] the “% Fall in blood glucose levels, SLM” value [1] was “NIL”, the inhibition in vivo at 100 mg/kg [2, 4] was 26% and the inhibition in vivo at 100 mg/kg [2, 5] was 24%. It also gave an inhibition in vivo at 100 mg/kg [2, 6] of 28% and a melting point of 119 to 120 °C.

Work on `COc1ccc(-c2cc(=O)c3ccc(OCC(O)CNC(C)C)cc3o2)cc1OC` (centres unmarked) [Compound 46, 3′,4′-Dimethoxy-7-[2-hydroxy-3-iso-propylamino-propoxy]-flavone] yielded an inhibition in vivo at 100 mg/kg [1] of 23.9% and a melting point of 144 to 145 °C.

For `CC(C)NCC(O)COc1ccc2c(=O)cc(-c3ccc(O)c(O)c3)oc2c1` (centres unmarked) [Compound 51, 3′,4′-Dihydroxy-7-(2-hydroxy-3-iso-propylamino-propoxy)-flavone], the “% Fall in blood glucose levels, SLM” value [1] was “NIL”, the inhibition in vivo at 100 mg/kg [2, 4] was 13% and the inhibition in vivo at 100 mg/kg [2, 5] was 15%. The inhibition in vivo at 100 mg/kg [2, 6] was 19%.

In the case of `COc1cc(OC)cc(-c2cc(=O)c3ccc(OCCCOc4ccc(C=C5SC(=O)NC5=O)cc4)cc3o2)c1` [Compound 66, 3′,5′-Dimethoxy-7-{3-[4-(thiazolidin-2,4-dione-5-ylidinemethyl)-phenoxy]-propoxy}-flavone], the “% Fall in blood glucose levels, SLM” value [1] is reported as 28.80%, the “% Fall in blood glucose levels, STZ-S 5 h” value [3] is reported as 18.9% and the “% Fall in blood glucose levels, STZ-S 24 h” value [3] is reported as 20.2%.
